IC50 and melting point data for 26 compounds are collected here from patent US8691820B2, “CDK inhibitors” (Curis, Inc., priority 2008, dated 2014).

The term IC50 denotes the concentration needed to halve the response being measured. A high value points to weaker potency. A word on the melting point: it is the temperature of the solid-liquid transition.

In the first data set the target is T1, CDK2/cyclinA (Homo sapiens, UniProt P24941).
T1 construct: C-terminal 6His-tagged human full length cdk2 (MW=35 kDa); 6His (C); made in house; host or cells: Sf21 insect cells (baculovirus)
Nature of the data set: CDK2 kinase assay (33P-ATP, Histone H1 substrate). In kind it is biochemical. As to conditions: 1 μM ATP, 5 μM Histon H1, 2 hours at room temperature. From the text: CDK2/cyclinA (Accession number for CDK2; EMBL M68520, for cyclin A; EMBL X51688): C-terminal 6His-tagged human full length cdk2 (MW=35 kDa), and N-terminal GST-tagged human full length cyclin A (MW=75 kDa) were expressed individually with baculovirus system in Sf21 insect cells. Recombinant cdk2 protein was purified with Ni2+/NTA agarose and then activated using CAK and repurified by Q Sepharose and Ni2+/NTA agarose. Recombinant cyclin A was purified using glutathione-agarose. They were then mixed in vitro to form protein complex. Recombinant protein complex was measured to be 67% in purity with SDS-PAGE and Coomassie blue staining. Specific activity of purified enzyme was measured to be 158 U/mg, where one unit of cdk2/cyclinA activity is defined as 1 nmol phosphate incorporated into 0.1 mg/ml histone H1 per minute at 30° C. with a final ATP concentration of […]. Enzyme was stored at a concentration of 0.1 mg/ml in 50 mM Tris/HCl pH7.5, 150 mM NaCl, 0.1 mM EGTA, 0.03% Brij-35, 270 mM sucrose, 1 mM benzamidine, 0.2 mM PMSF, 0.1% 2-mercaptoethanol. Frozen solution.
Histon H1 (Substrate for CDK2): Histone H1 (Sigma cat#H4524), was purified as a lysine rich fraction from calf thymus with 93% purity (MW=21.5 kDa). Purified protein was stored at a concentration of 20 mg/ml=930 μM in distilled water.
[…] (0.5 nmol) and 5 μM Histon H1 were mixed in the reaction buffer (20 mM HEPES (pH 7.5), 10 mM MgCl2, 1 mM EGTA, 0.02% Brij 35, 0.02 mg/ml BSA, 0.1 mM Na3VO4, 2 mM DTT) with final concentration of 1 μM ATP and 1% DMSO. The reaction was incubated for 2 hours at room temperature and conversion rate of ATP is about 4.5%. An equal volume of 25% TCA was added to stop the reaction and precipitate the labeled peptides. Precipitated proteins were trapped onto glass fiber B filterplates and excess […] p33 ATP was washed off. The plates were allowed to air-dry prior to the addition of 30 uL/well of Packard Microscint 20. The amount of incorporated isotope was measured using a Perkin Elmer TopCount plate reader. Different concentrations of compounds were added to reaction to assess the activity of compounds to inhibit […]. IC50 was calculated using Prism software with sigmoidal dose-response curve fitting.
The following TABLE B lists compounds representative of the invention and their activity in the CDK2 assay. In this assay, the following grading was used: I≧10 μM, 10 μM>II>1 μM, 1 μM>III>0.1 μM, and IV≦0.1 μM for IC50.
`CC(C)(C)c1cnc(CSc2cnc(NC(=O)Cc3ccc(OCCCC(=O)Nc4ccccn4)cc3)s2)o1` [Compound 64, 4-(4-(2-(5-((5-tert-butyloxazol-2-yl)methylthio)thiazol-2-ylamino)-2-oxoethyl)phenoxy)-N-(pyridin-2-yl)butanamide] came in with an IC50 not above 100 nM.

In the case of `CONC(=O)CCCOc1ccc(CC(=O)Nc2ncc(SCc3ncc(C(C)(C)C)o3)s2)cc1` [Compound 31, 4-(4-(2-(5-((5-tert-butyloxazol-2-yl)methylthio)thiazol-2-ylamino)-2-oxoethyl)phenoxy)-N-methoxybutanamide], the IC50 was not above 100 nM.

On to `Cc1ccc(NC(=O)CCCCCCC(=O)Nc2ncc(SCc3ncc(C(C)(C)C)o3)s2)c(N)c1` [Compound 26, N^1-(2-amino-4-methylphenyl)-N^8-(5-((5-tert-butyloxazol-2-yl)methylthio)thiazol-2-yl)octanediamide], for which the IC50 is not above 100 nM.

As to `CC(C)(C)c1cnc(CSc2cnc(NC(=O)CCCCCCC(=O)NOC3CCCCO3)s2)o1` (stereo not drawn) [Compound 3, N^1-(5-((5-tert-butyloxazol-2-yl)methylthio)thiazol-2-yl)-N^8-(tetrahydro-2H-pyran-2-yloxy)octanediamide], the IC50 is not above 100 nM.

Consider `CC(C)(C)c1cnc(CSc2cnc(NC(=O)Cc3ccc(OCCCCC(=O)Nc4ccccc4N)cc3)s2)o1` [Compound 35, N-(2-aminophenyl)-5-(4-(2-(5-((5-tert-butyloxazol-2-yl)methylthio)thiazol-2-ylamino)-2-oxoethyl)phenoxy)pentanamide], for which the IC50 was not above 100 nM.

Compound `CC(C)(C)c1cnc(CSc2cnc(NC(=O)Cc3cccc(OCCCC(=O)Nc4ccccc4N)c3)s2)o1` [Compound 56, N-(2-aminophenyl)-4-(3-(2-(5-((5-tert-butyloxazol-2-yl)methylthio)thiazol-2-ylamino)-2-oxoethyl)phenoxy)butanamide] returned an IC50 not above 100 nM.

Consider `CC(C)(C)c1cnc(CSc2cnc(NC(=O)Cc3ccc(OCCCCCC(=O)Nc4ccccc4N)cc3)s2)o1` [Compound 36, N-(2-aminophenyl)-6-(4-(2-(5-((5-tert-butyloxazol-2-yl)methylthio)thiazol-2-ylamino)-2-oxoethyl)phenoxy)hexanamide], for which the IC50 was not above 100 nM.

Regarding `CC(C)(C)c1cnc(CSc2cnc(NC(=O)CCCCCCC(=O)N(O)Cc3ccccc3)s2)o1` [Compound 6, N^1-benzyl-N^8-(5-((5-tert-butyloxazol-2-yl)methylthio)-thiazol-2-yl)-N^1-hydroxyoctanediamide], the IC50 was not above 100 nM.

In the case of `CN(O)C(=O)/C=C/c1ccc(C(=O)Nc2ncc(SCc3ncc(C(C)(C)C)o3)s2)cc1` [Compound 39, (E)-N-(5-((5-tert-butyloxazol-2-yl)methylthio)thiazol-2-yl)-4-(3-(hydroxy(methyl)amino)-3-oxoprop-1-enyl)benzamide], the IC50 was in the range of 1000 to 10000 nM.

Regarding `CC(C)(C)c1cnc(CSc2cnc(NC(=O)CCCCCCC(=O)Nc3cn[nH]c3)s2)o1` [Compound 42, N^1-(5-((5-tert-butyloxazol-2-yl)methylthio)thiazol-2-yl)-N^8-(1H-pyrazol-4-yl)octanediamide], the IC50 is not above 100 nM.

For the compound `CC(C)(C)c1cnc(CSc2cnc(NC(=O)Oc3ccc(OCCCC(=O)Nc4ccccc4N)cc3)s2)o1` [Compound 54, 4-(4-(2-Aminophenylamino)-4-oxobutoxy)phenyl 5-((5-tert-butyloxazol-2-yl)methylthio)thiazol-2-ylcarbamate], the IC50 was not above 100 nM.

`CC(C)(C)c1cnc(CSc2cnc(NC(=O)CC(=O)Nc3ccccc3N)s2)o1` [Compound 13, N1-(2-aminophenyl)-N3-(5-((5-tert-butyloxazol-2-yl)methylthio)thiazol-2-yl)malonamide]: the IC50 was not above 100 nM.

The compound `CC(C)(C)c1cnc(CSc2cnc(NC(=O)CCCCCCC(=O)Nc3ccccc3)s2)o1` [Compound 9, N^1-(5-((5-tert-butyloxazol-2-yl)methylthio)thiazol-2-yl)-N^8-phenyloctanediamide] showed an IC50 not above 100 nM.

In turn, `CC(C)(C)c1cnc(CSc2cnc(NC(=O)Cc3ccc(OCCC(=O)Nc4ccccc4N)cc3)s2)o1` [Compound 33] showed an IC50 not above 100 nM.

`CC(Sc1cnc(NC(=O)Cc2ccc(OCCCC(=O)Nc3ccccc3N)cc2)s1)c1ncc(C(C)(C)C)o1` (stereo not drawn) [Compound 58, N-(2-aminophenyl)-4-(4-(2-(5-(1-(5-tert-butyloxazol-2-yl)ethylthio)thiazol-2-ylamino)-2-oxoethyl)phenoxy)butanamide] returned an IC50 not above 100 nM.

In the case of `CC(C)(C)c1cnc(CSc2cnc(NC(=O)CCCCCCC(=O)Nc3ccc(O)cc3)s2)o1` [Compound 10, N^1-(5-((5-tert-butyloxazol-2-yl)methylthio)thiazol-2-yl)-N^8-(4-hydroxyphenyl)octanediamide], the IC50 is not above 100 nM.

`CN(O)C(=O)CCCCCCC(=O)Nc1ncc(SCc2ncc(C(C)(C)C)o2)s1` [Compound 4, N^1-(5-((5-tert-butyloxazol-2-yl)methylthio)thiazol-2-yl)-N^8-hydroxy-N^8-methyloctanediamide]: the IC50 was not above 100 nM.

`CC(C)(C)c1cnc(CSc2cnc(NC(=O)Cc3ccc(OCCCC(=O)Nc4ccncc4)cc3)s2)o1` [Compound 62, 4-(4-(2-(5-((5-tert-butyloxazol-2-yl)methylthio)thiazol-2-ylamino)-2-oxoethyl)phenoxy)-N-(pyridin-4-yl)butanamide] gave an IC50 not above 100 nM.

In turn, `CC(C)(C)c1cnc(CSc2cnc(NC(=O)CCCCCCC(=O)Nc3cc(-c4cccs4)n[nH]3)s2)o1` [Compound 52] came in with an IC50 not above 100 nM.

Take `CC(C)(C)c1cnc(CSc2cnc(NC(=O)CCCCCCC(=O)Nc3ccncc3)s2)o1` [Compound 30, N^1-(5-((5-tert-butyloxazol-2-yl)methylthio)thiazol-2-yl)-N^8-(pyridin-4-yl)octanediamide]: the IC50 was not above 100 nM.

In the case of `CC(C)(C)c1cnc(CSc2cnc(NC(=O)CCCCCCC(=O)Nc3nc4ccccc4[nH]3)s2)o1` [Compound 47], the half-inhibitory concentration (IC50) is not above 100 nM.

`CC(C)(C)c1cnc(CSc2cnc(NC(=O)CCCCCCC(=O)Nc3[nH]ncc3-c3ccc(F)cc3)s2)o1` [Compound 45] gave an IC50 not above 100 nM.

Regarding `CC(C)(C)c1cnc(CSc2cnc(NC(=O)CC3Nc4ccccc4NC3=O)s2)o1` (stereo not drawn) [Compound 46, N-(5-((5-tert-butyloxazol-2-yl)methylthio)thiazol-2-yl)-2-(3-oxo-1,2,3,4-tetrahydroquinoxalin-2-yl)acetamide], the IC50 was not above 100 nM.

On to `CC(C)(C)c1cnc(CSc2cnc(NC(=O)Cc3ccc(OCCCC(=O)Nc4ccccc4)cc3)s2)o1` [Compound 61, 4-(4-(2-(5-((5-tert-butyloxazol-2-yl)methylthio)thiazol-2-ylamino)-2-oxoethyl)phenoxy)-N-phenylbutanamide], for which the IC50 is not above 100 nM.

`CC(C)(C)c1cnc(CSc2cnc(NC(=O)CCCCCCC(=O)Nc3ccc(CCO)cc3)s2)o1` [Compound 8, N^1-(5-((5-tert-butyloxazol-2-yl)methylthio)thiazol-2-yl)-N^8-(4-(2-hydroxyethyl)phenyl)octanediamide] registered an IC50 not above 100 nM.

In the case of `CN(O)C(=O)CCCOc1ccc(CC(=O)Nc2ncc(SCc3ncc(C(C)(C)C)o3)s2)cc1` [Compound 32, 4-(4-(2-(5-((5-tert-butyloxazol-2-yl)methylthio)thiazol-2-ylamino)-2-oxoethyl)phenoxy)-N-hydroxy-N-methylbutanamide], the IC50 is not above 100 nM.

System in a further data set: not given
Test: not given
Conditions: not given
The compound `CC(C)(C)c1cnc(CSc2cnc(NC(=O)Cc3ccc(OCCCC(=O)Nc4ccccn4)cc3)s2)o1` [Compound 64, 4-(4-(2-(5-((5-tert-butyloxazol-2-yl)methylthio)thiazol-2-ylamino)-2-oxoethyl)phenoxy)-N-(pyridin-2-yl)butanamide] showed a melting point of 126 to 129 °C.
